By IC50 is commonly meant the concentration at which inhibition is half-maximal.

The results in this text go back to patent US9085555B2, “Complement pathway modulators and uses thereof” (priority 2011, dated 2015).

Structures are written as SMILES.

The assay addresses Factor D (Homo sapiens (Human), UniProt P00746). As to the kind of experiment: biochemical. The assay is classed as biochemical. The conditions noted are these: read-out: IC50.

Chain of Factor D (P00746 26-253): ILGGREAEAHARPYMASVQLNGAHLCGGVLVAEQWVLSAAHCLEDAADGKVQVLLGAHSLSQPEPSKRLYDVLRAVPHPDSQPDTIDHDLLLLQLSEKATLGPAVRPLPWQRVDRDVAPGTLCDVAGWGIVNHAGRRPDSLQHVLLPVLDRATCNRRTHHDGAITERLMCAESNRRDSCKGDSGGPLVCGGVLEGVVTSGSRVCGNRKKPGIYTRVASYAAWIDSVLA

Regarding `CC(=O)c1cn(CC(=O)N2[C@@H]3C[C@@H]3C[C@H]2C(=O)NCc2cccc(Cl)c2F)c2cccnc12` [Example 553, (1R,3S,5R)-2-[2-(3-Acetyl-pyrrolo[3,2-b]pyridin-1-yl)-acetyl]-2-aza-bicyclo[3.1.0] hexane-3-carboxylic acid 3-chloro-2-fluoro-benzylamide], the half-inhibitory concentration (IC50) was found to be 5300 nM. Under `C[C@@]1(F)C[C@@H](C(=O)NCc2cccc(Cl)c2F)N(C(=O)Cn2cc(C(=O)C(F)(F)F)c3ccccc32)C1` [Example 554, (2S,4R)-4-Fluoro-4-methyl-1-{2-[3-(2,2,2-trifluoro-acetyl)-indol-1-yl]-acetyl}-pyrrolidine-2-carboxylic acid 3-chloro-2-fluoro-benzylamide] stands 44 nM; under `CC(=O)c1cn(CC(=O)N2C[C@@H](N(C)C)[C@H](F)[C@H]2C(=O)NCc2cccc(Cl)c2F)c2ccccc12` [Example 555, (2R,3S,4R)-1-[2-(3-Acetyl-indol-1-yl)-acetyl]-4-dimethylamino-3-fluoro-pyrrolidine-2-carboxylic acid 3-chloro-2-fluoro-benzylamide], 2270 nM.

For the compound `O=C(CO)c1cn(CC(=O)N2[C@@H]3C[C@@H]3C[C@H]2C(=O)NCc2cccc(Cl)c2F)c2ccccc12` [Example 556, (1R,3S,5R)-2-{2-[3-(2-Hydroxy-acetyl)-indol-1-yl]-acetyl}-2-aza-bicyclo[3.1.0] hexane-3-carboxylic acid 3-chloro-2-fluoro-benzylamide], the half-maximal inhibitory concentration (IC50) turned out to be 25 nM. Under `CC(=O)c1cn(CC(=O)N2[C@@H]3C[C@@H]3C[C@H]2C(=O)N[C@H](CCO)c2cccc(Cl)c2F)c2ncccc12` [Example 557, (1R,3S,5R)-2-[2-(3-Acetyl-pyrrolo[2,3-b]pyridin-1-yl)-acetyl]-2-aza-bicyclo[3.1.0] hexane-3-carboxylic acid [(R)-1-(3-chloro-2-fluoro-phenyl)-3-hydroxy-propyl]-amide] stands 134 nM. Under `CC(=O)c1cn(CC(=O)N2[C@@H]3C[C@@H]3C[C@H]2C(=O)Nc2cccc(OC(F)(F)F)c2)c2ncccc12` [Example 558, (1R,3S,5R)-2-[2-(3-Acetyl-pyrrolo[2,3-b]pyridin-1-yl)-acetyl]-2-aza-bicyclo[3.1.0] hexane-3-carboxylic acid (3-trifluoromethoxy-phenyl)-amide] stands 1990 nM; under `COc1ccc2c(c1)c(C=O)cn2CC(=O)N1C[C@H](F)C[C@H]1C(=O)NCc1cccc(Cl)c1F` [Example 560, (2S,4R)-4-Fluoro-1-[2-(3-formyl-5-methoxy-indol-1-yl)-acetyl]-pyrrolidine-2-carboxylic acid 3-chloro-2-fluoro-benzylamide], 141 nM.

With `O=C(NCc1cccc(Cl)c1F)[C@@H]1C[C@@H](F)CN1C(=O)Cn1cc(C(=O)C(F)(F)F)c2ccccc21` [Example 561, (2S,4R)-4-Fluoro-1-{2-[3-(2,2,2-trifluoro-acetyl)-indol-1-yl]-acetyl}-pyrrolidine-2-carboxylic acid 3-chloro-2-fluoro-benzylamide], the 50% inhibitory concentration (IC50) is 14 nM.

Take `CC(=O)c1cn(CC(=O)N2[C@@H]3C[C@@H]3C[C@H]2C(=O)Nc2cccc(OC(F)(F)F)c2F)c2ncccc12` [Example 562, (1R,3S,5R)-2-[2-(3-Acetyl-pyrrolo[2,3-b]pyridin-1-yl)-acetyl]-2-aza-bicyclo[3.1.0]hexane-3-carboxylic acid (2-fluoro-3-trifluoromethoxy-phenyl)-amide]: the IC50 amounted to 804 nM.

For `O=C(CO)c1cn(CC(=O)N2C[C@H](F)C[C@H]2C(=O)NCc2cccc(Cl)c2F)c2ccccc12` [Example 563, (2S,4R)-4-Fluoro-1-{2-[3-(2-hydroxy-acetyl)-indol-1-yl]-acetyl}-pyrrolidine-2-carboxylic acid 3-chloro-2-fluoro-benzylamide], the IC50 turned out to be 42 nM. For `O=C(CO)c1cn(CC(=O)N2C[C@H](F)C[C@H]2C(=O)NCc2cccc(Br)c2F)c2ccccc12` [Example 564, (2S,4R)-4-Fluoro-1-{2-[3-(2-hydroxy-acetyl)-indol-1-yl]-acetyl}-pyrrolidine-2-carboxylic acid 3-bromo-2-fluoro-benzylamide], the IC50 was determined as 13 nM. Under `COCC(=O)c1cn(CC(=O)N2C[C@H](F)C[C@H]2C(=O)NCc2cccc(Cl)c2F)c2ccccc12` [Example 565, (2S,4R)-4-Fluoro-1-{2-[3-(2-methoxy-acetyl)-indol-1-yl]-acetyl}-pyrrolidine-2-carboxylic acid 3-chloro-2-fluoro-benzylamide] stands 369 nM; under `NC(=O)c1cn(CC(=O)N2C[C@@](F)(CO)C[C@H]2C(=O)NCc2cccc(Cl)c2F)c2ccccc12` [Example 566, 1-{2-[(2S,4R)-2-(3-Chloro-2-fluoro-benzylcarbamoyl)-4-fluoro-4-hydroxymethyl-pyrrolidin-1-yl]-2-oxo-ethyl}-1H-indole-3-carboxylic acid amide], 436 nM; under `NC(=O)c1cn(CC(=O)N2CCS[C@H]2C(=O)NCc2cccc(Cl)c2F)c2ccccc12` [Example 567, 1-{2-[(S)-2-(3-Chloro-2-fluoro-benzylcarbamoyl)-thiazolidin-3-yl]-2-oxo-ethyl}-1H-indole-3-carboxylic acid amide], 293 nM. As for `COC[C@@H](NC(=O)[C@@H]1C[C@H]2C[C@H]2N1C(=O)Cn1cc(C(C)=O)c2ccccc21)c1cccc(Cl)c1F` [Example 568, (1R,3S,5R)-2-[2-(3-Acetyl-indol-1-yl)-acetyl]-2-aza-bicyclo[3.1.0]hexane-3-carboxylic acid [(S)-1-(3-chloro-2-fluoro-phenyl)-2-methoxy-ethyl]-amide], the IC50 came out at 121 nM. `CCO[C@H]1[C@@H](C(=O)NCc2cccc(Cl)c2F)N(C(=O)Cn2cc(C(C)=O)c3ccccc32)C[C@@H]1F` [Example 569, (2S,3S,4S)-1-[2-(3-Acetyl-indol-1-yl)-acetyl]-4-fluoro-3-ethoxy-pyrrolidine-2-carboxylic acid 3-chloro-2-fluoro-benzylamide]: the IC50 is 13 nM.

Regarding `CO[C@H]1[C@@H](C(=O)N[C@H](C)c2cccc(Cl)c2F)N(C(=O)Cn2cc(C(C)=O)c3ccccc32)C[C@@H]1F` [Example 570, (2S,3S,4S)-1-[2-(3-Acetyl-indol-1-yl)-acetyl]-4-fluoro-3-methoxy-pyrrolidine-2-carboxylic acid [(R)-1-(3-chloro-2-fluoro-phenyl)-ethyl]-amide], the half-inhibitory concentration (IC50) stood at 27 nM. The same measure for `CO[C@H]1[C@@H](C(=O)N[C@@H](C)c2cccc(Cl)c2F)N(C(=O)Cn2cc(C(C)=O)c3ccccc32)C[C@@H]1F` [Example 571, (2S,3S,4S)-1-[2-(3-Acetyl-indol-1-yl)-acetyl]-4-fluoro-3-methoxy-pyrrolidine-2-carboxylic acid [(S)-1-(3-chloro-2-fluoro-phenyl)-ethyl]-amide]: 99 nM; for `CO[C@H]1[C@@H](C(=O)NC2(c3cccc(Cl)c3)CC2)N(C(=O)Cn2cc(C(C)=O)c3ccccc32)C[C@@H]1F` [Example 572, (2S,3S,4S)-1-[2-(3-Acetyl-indol-1-yl)-acetyl]-4-fluoro-3-methoxy-pyrrolidine-2-carboxylic acid [1-(3-chloro-phenyl)-cyclopropyl]-amide]: 284 nM.
